For data set [1], the target named is T1, PARG (Homo sapiens, UniProt Q86W56). In kind it is biochemical. As to conditions: read-out: PARG Enzyme Activity.
Data set [2] addresses T1, PARG. It is filed as cell-based. Conditions: read-out: PARG Cell Assay.
A short description of data set [3]: Mouse microsomal stability. Conditions: microsomes, read-out: Mouse Microsomes T1/2. It is filed as in vitro ADME.
Data set [4] can be described thus: In vivo pharmacokinetics in CD-1 mice. Also noted: species or system mouse. As to conditions: for Fold exposure relative to cell IC50: defined as [Cmax(free)]/Cell IC50; for In vivo half-life: initial in vivo PK studies. The procedure: (§1) Pharmacokinetics were studied in 6-8 week old male CD-1 mice following single intravenous or oral administration. Compounds were formulated as solutions comprising up to 10% DMSO with up to 10% Tween80 in saline at a concentration of approximately 1 mM. Doses were administered at 1 mg/kg (intravenous) or 5 mg/kg (oral gavage) unless otherwise stated. Blood samples were collected as dried blood spots (Agilent Bond Elut DMS cards) and assayed following solvent extraction using methanol, through a phospholipid removal plate (Phree phospholipid removal plates, Phenomenex) followed by LC-MS/MS analysis. The time-points for blood collection were as follows: oral (0.5, 1, 3, 5 and 24 h); intravenous (0.1, 0.25, 0.75, 2, 5 and 24 h). The resulting concentration-time data were analyzed by non-compartmental methods (PK Solver, Excel Add-In).

The test system of data set [5] is CD-1 mice. Description: In vivo tolerability / toxicity observation during PK studies. Also noted: species or system mouse. Conditions: for Toxicity Observed / Time of onset of ataxia after oral dosing: mice; for Tolerability in vivo: oral doses from 5 mg/kg to 160 mg/kg; for Time of onset of ataxia after oral dosing: oral dosing arm, 5 mg/kg. The procedure:
We therefore initiated a dose-escalation study to examine dose versus exposure of the compound. […] Our following study, with derivative 12, incorporated enhanced monitoring and here we observed the onset of ataxia shortly after the 5 h sampling time point, and exclusively in the oral dosing arm of the study, despite lower absolute and free drug exposures in these dosing arms.
as §1

A short description of data set [6]: Human liver microsomal stability. It is filed as in vitro ADME. As to conditions: liver microsomes, read-out: Human Microsomes T1/2. From the text: Table 1 Improvements to metabolic stability through cyclopropyl modification. | column: Human Microsomes T1/2 (minutes)
The nature of data set [7]: Metabolite identification studies. It is filed as in vitro ADME. Conditions: formed via removal of the cyclopropylmethyl moiety. From the text: In an attempt to improve the in vivo PK profile, we undertook a series of metabolite identification studies, to determine the key sites of metabolism on 1 and 2.
[8] abbreviates: oral dose 5 (mg/kg), male CD-1 mice.
Setting [9] is: geometric mean of at least two independent determinations.

“Also recorded” adds a separate entry of the source. Like-named read-outs stand apart in the source and are kept apart here.

T1 sequence (Q86W56 whole entry, species assumed): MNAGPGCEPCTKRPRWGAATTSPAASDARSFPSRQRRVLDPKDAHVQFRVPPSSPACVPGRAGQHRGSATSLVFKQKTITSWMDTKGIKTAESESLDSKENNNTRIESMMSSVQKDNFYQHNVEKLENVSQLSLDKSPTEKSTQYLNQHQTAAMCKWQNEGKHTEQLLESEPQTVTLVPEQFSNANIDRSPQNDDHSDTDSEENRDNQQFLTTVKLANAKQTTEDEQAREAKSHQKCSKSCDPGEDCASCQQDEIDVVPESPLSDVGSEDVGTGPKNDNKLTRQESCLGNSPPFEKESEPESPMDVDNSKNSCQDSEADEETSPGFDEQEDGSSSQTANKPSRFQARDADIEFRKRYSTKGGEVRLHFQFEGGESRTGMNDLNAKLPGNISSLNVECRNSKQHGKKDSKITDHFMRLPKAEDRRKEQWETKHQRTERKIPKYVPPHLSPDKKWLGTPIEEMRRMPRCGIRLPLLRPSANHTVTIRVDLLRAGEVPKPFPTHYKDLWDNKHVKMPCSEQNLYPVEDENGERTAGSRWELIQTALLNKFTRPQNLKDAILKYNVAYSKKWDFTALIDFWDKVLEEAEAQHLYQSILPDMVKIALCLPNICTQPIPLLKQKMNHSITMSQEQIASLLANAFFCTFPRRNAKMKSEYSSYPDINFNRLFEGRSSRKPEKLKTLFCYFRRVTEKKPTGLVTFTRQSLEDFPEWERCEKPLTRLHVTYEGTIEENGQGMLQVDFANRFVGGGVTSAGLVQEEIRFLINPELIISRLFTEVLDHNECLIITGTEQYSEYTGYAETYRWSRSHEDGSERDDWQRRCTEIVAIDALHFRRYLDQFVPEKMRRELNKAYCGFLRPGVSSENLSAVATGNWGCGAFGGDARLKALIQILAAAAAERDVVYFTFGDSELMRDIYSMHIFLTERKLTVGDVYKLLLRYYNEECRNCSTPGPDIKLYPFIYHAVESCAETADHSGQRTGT

As to `CCn1c(=O)n(Cc2cnn(C)c2)c(=O)c2cc(S(=O)(=O)NC3(CF)CC3)ccc21` [Compound 10], the IC50 in data set [1] worked out at 100 nM; in data set [2], 80 nM. Also, the half-life in data set [3] stood at 102 min. The “Fold exposure relative to cell IC50” value in data set [4] (setting [8]) amounted to 15. Besides, the “Toxicity Observed” value in data set [5] (oral dose 5 (mg/kg)) was “well tolerated and No”; in data set [5] (oral dose 10 (dose-escalation study)), “one animal was found dead on study; also recorded: liver toxicity was the probable cause of death”.
Take `Cn1cc(Cn2c(=O)c3cc(S(=O)(=O)NC4(C)CC4)ccc3n(Cc3ccn(C)n3)c2=O)cn1` [Compound 1]: the IC50 was determined as 20 nM in data set [1] (setting [9]) and 90 nM in data set [2] (setting [9]). Also, the half-life in data set [3] worked out at 22 min; in data set [6], 53 min. Further, the In vivo half-life result in data set [4] (in words) was “short half-lives”. The “Fold exposure relative to cell IC50” value is 0.96 in data set [4] (setting [8]) and 350 in data set [4] (oral dose 160 (mg/kg), mice). Moreover, the “Toxicity Observed” value in data set [5] (oral dose 5 (mg/kg)) and in data set [5] (oral dose 160 (mg/kg)) was “No” throughout. Also, in data set [5], the Tolerability in vivo entry was “well tolerated”. Besides, the Major metabolite entry in data set [7] is “primary sulphonamides 3 and 4”.
With `Cc1cc(Cn2c(=O)c3cc(S(=O)(=O)NC4(C)CC4)ccc3n(C)c2=O)on1` [Compound 2], the In vivo half-life entry in data set [4] (in words) was “short half-lives”. Besides, the Tolerability in vivo result in data set [5] is reported as “well tolerated”. Also, the Major metabolite result in data set [7] was “primary sulphonamides 3 and 4”.
Turning to `CCn1c(=O)n(Cc2cc(C)on2)c(=O)c2cc(S(=O)(=O)NC3(CF)CC3)ccc21` [Compound 13], the IC50 in data set [1] (setting [9]) is 1520 nM; in data set [2] (setting [9]) it was 6600 nM. Besides, the half-life in data set [3] is 121 min. The “Fold exposure relative to cell IC50” value in data set [4] (setting [8]) was found to be 0.28. Moreover, the “Toxicity Observed” value in data set [5] (oral dose 5 (mg/kg)) is “Ataxia”. The “Time of onset of ataxia after oral dosing” value in data set [5] is given as greater than 5 h.
`Cn1cc(Cn2c(=O)c3cc(S(=O)(=O)NC4(C)CC4)ccc3n(C)c2=O)cn1` [Compound 11]: the half-life in data set [3] is 82 min. Besides, the “Toxicity Observed” value in data set [5] (oral dose 5 (mg/kg)) is listed as “No”.
For the compound `Cn1cc(Cn2c(=O)c3cc(S(=O)(=O)NC4(C(F)(F)F)CC4)ccc3n(Cc3ccn(C)n3)c2=O)cn1` [Compound 7], the figures for the IC50 in data set [1] (setting [9]) and in data set [2] (setting [9]) were 3600 nM and 4100 nM, respectively. Also, the half-life was 38 min in data set [3] and 102 min in data set [6].
Regarding `Cn1cc(Cn2c(=O)c3cc(S(=O)(=O)NC4(CF)CC4)ccc3n(C)c2=O)cn1` [Compound 12], the IC50 in data set [1] turned out to be 630 nM; in data set [2] it was 290 nM. For the same compound, the half-life in data set [3] came out at 285 min. For the same compound, the “Total exposure and Cmax relative to compound 1” value in data set [4] (in vivo, mice) was “over four-fold lower”. In addition, the “Fold exposure relative to cell IC50” value in data set [4] (setting [8]) was 61. The “Toxicity Observed” value in data set [5] (oral dose 5 (mg/kg)) is listed as “Ataxia”. In addition, in data set [5], the “Time of onset of ataxia after oral dosing” value is greater than 5 h.
Take `[2H]C([2H])([2H])C1(NS(=O)(=O)c2ccc3c(c2)c(=O)n(Cc2cnn(C)c2)c(=O)n3Cc2ccn(C)n2)CC1` [Compound 8]: the IC50 in data set [1] (setting [9]) is 30 nM; in data set [2] (setting [9]), 70 nM. In addition, the half-life in data set [3] stood at 18 min; in data set [6] it was 34 min.
For `Cn1cc(Cn2c(=O)c3cc(S(=O)(=O)NC4(CF)CC4)ccc3n(Cc3ccn(C)n3)c2=O)cn1` [Compound 5], the IC50 is 20 nM in data set [1] (setting [9]) and 170 nM in data set [2] (setting [9]). Further, the half-life stood at 37 min in data set [3] and 82 min in data set [6]. Also, the In vivo clearance entry in data set [4] (mice, in words) is given as “very rapidly cleared after oral dosing; also recorded: high clearance”. The “Fold exposure relative to cell IC50” value in data set [4] (setting [8]) came out at 0.18. The “Toxicity Observed” value in data set [5] (oral dose 5 (mg/kg)) is reported as “No”.
Turning to `Cn1cc(Cn2c(=O)c3cc(S(=O)(=O)NC4(C(F)F)CC4)ccc3n(Cc3ccn(C)n3)c2=O)cn1` [Compound 6], the IC50 came out at 320 nM in data set [1] (setting [9]) and 1250 nM in data set [2] (setting [9]). Further, the half-life in data set [3] stood at 42 min; in data set [6] it was 71 min.
`CCn1c(=O)n(Cc2cnn(C)c2)c(=O)c2cc(S(=O)(=O)NC3(C)CC3)ccc21` [Compound 9]: in data set [3], the half-life is 47 min. Besides, the “Toxicity Observed” value in data set [5] (oral dose 5 (mg/kg)) is “No”.
